Legend:
[1] = target: Prostaglandin G/H synthase 1 (Homo sapiens, UniProt P23219); assay type: microsomes, U-937, Microsome
Description: Inhibition of COX-1 in U-937 (human lymphoma) cell microsomes.

Rattus norvegicus [2] = assay: Potency in rat paw edema assay; assay type: functional
[3] = Slow clearance (CL) was determined; assay type: ADME, organism-based; conditions: in vivo
[4] = Maximum concentration for the bioavailability at a dose of 20 mg/kg administered orally; assay type: ADME, organism-based; set-up: dose 20 mg/kg, route oral; conditions: in vivo, po
Rattus norvegicus [5] = organism: Rattus norvegicus; assay: Potency by rat adjuvant arthritis assay; assay type: functional
Rattus norvegicus [6] = organism: Rattus norvegicus; assay: Potency by rat hyperalgesia assay; assay type: functional
Rattus norvegicus [7] = organism: Rattus norvegicus; assay: Potency by rat pyrexia assay; assay type: functional

Sequence of Prostaglandin G/H synthase 1 (P23219 whole entry): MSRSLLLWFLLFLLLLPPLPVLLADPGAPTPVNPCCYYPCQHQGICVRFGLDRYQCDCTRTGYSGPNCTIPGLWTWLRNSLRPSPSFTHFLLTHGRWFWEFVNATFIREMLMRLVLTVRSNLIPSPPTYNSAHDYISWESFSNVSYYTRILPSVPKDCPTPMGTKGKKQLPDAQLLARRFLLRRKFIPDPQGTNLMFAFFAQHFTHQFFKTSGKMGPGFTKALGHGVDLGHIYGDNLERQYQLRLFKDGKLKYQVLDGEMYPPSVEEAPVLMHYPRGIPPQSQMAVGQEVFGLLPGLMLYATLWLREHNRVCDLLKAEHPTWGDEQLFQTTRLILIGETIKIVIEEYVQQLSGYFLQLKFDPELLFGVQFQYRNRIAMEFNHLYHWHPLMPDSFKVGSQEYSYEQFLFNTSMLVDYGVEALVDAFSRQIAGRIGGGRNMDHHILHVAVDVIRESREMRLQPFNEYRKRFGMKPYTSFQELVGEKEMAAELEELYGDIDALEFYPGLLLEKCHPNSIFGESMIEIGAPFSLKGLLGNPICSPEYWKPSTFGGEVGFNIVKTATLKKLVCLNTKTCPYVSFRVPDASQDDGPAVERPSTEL

SMILES | IC50 [1] [µM] | other results
CC1(C)OC(=O)C(Oc2cnccn2)=C1c1ccc(S(C)(=O)=O)cc1 | > 10 | –
CC1(C)OC(=O)C(Oc2ccc3ccccc3n2)=C1c1ccc(S(C)(=O)=O)cc1 | 3 | –
CC1(C)OC(=O)C(Oc2ccc(F)cn2)=C1c1ccc(S(C)(=O)=O)cc1 | 4.6 | –
CC1(C)OC(=O)C(Oc2ccc3sccc3c2)=C1c1ccc(S(C)(=O)=O)cc1 | < 0.3 | –
CS(=O)(=O)c1ccc(C2=C(c3ccccc3)C(=O)OC2)cc1 [ROFECOXIB] | – | ED50 (Rattus norvegicus [2]): 1.5 mg/kg
CC1(C)OC(=O)C(Oc2cccnc2)=C1c1ccc(S(C)(=O)=O)cc1 | > 30 | –
CC1(C)OC(=O)C(Oc2cccc3cnccc23)=C1c1ccc(S(C)(=O)=O)cc1 | 3 | –
CC1(C)OC(=O)C(Oc2ncccn2)=C1c1ccc(S(C)(=O)=O)cc1 | > 10 | –
CC1(C)OC(=O)C(Oc2ccccn2)=C1c1ccc(S(C)(=O)=O)cc1 | > 10 | ED50 (Rattus norvegicus [2]): > 10 mg/kg
CC1(C)OC(=O)C(Oc2ncnc3ccccc23)=C1c1ccc(S(C)(=O)=O)cc1 | > 10 | –
CC1(C)OC(=O)C(Oc2ccc(C3CC3)cn2)=C1c1ccc(S(C)(=O)=O)cc1 | 3 | –
CC1(C)OC(=O)C(Oc2ccc(Cl)cn2)=C1c1ccc(S(C)(=O)=O)cc1 | – | CL [3]: 4.8; ED50 (Rattus norvegicus [2]): 0.75 mg/kg; Cmax [4]: 16 µM
CC1(C)OC(=O)C(Oc2ncccc2Cl)=C1c1ccc(S(C)(=O)=O)cc1 | 1 | –
CC1(C)OC(=O)C(Oc2ccncc2)=C1c1ccc(S(C)(=O)=O)cc1 | > 100 | –
CC1(C)OC(=O)C(Oc2cccc(Cl)n2)=C1c1ccc(S(C)(=O)=O)cc1 | > 10 | –
Cc1ccc(OC2=C(c3ccc(S(C)(=O)=O)cc3)C(C)(C)OC2=O)nc1 | 3 | –
CC1(C)OC(=O)C(Oc2ccc3[nH]ccc3c2)=C1c1ccc(S(C)(=O)=O)cc1 | 1 | –
CC1(C)OC(=O)C(Oc2ccc(Br)cn2)=C1c1ccc(S(C)(=O)=O)cc1 | 5.6 | ED50 (Rattus norvegicus [5]): 0.2 mg/kg; ED50 (Rattus norvegicus [6]): 0.6 mg/kg; ED50 (Rattus norvegicus [2]): 0.86 mg/kg; ED50 (Rattus norvegicus [7]): 0.3 mg/kg
CC1(C)OC(=O)C(Oc2ncc(Cl)cc2Cl)=C1c1ccc(S(C)(=O)=O)cc1 | 0.3 | –
